Counter-ions that a name gives are not always drawn. Calls of active or inactive are those of the source.
Tests used:
[1] = Luminescence Cell-Based Dose Retest to Confirm Inhibitors of Cancer Stem Cells. [Related pubchem assays (depositor defined):AID2717, AID2721]; format: functional; conditions: Homo sapiens
[2] = system: A-375; experiment: proliferation inhibition in MITF-low A375 cells – cell-based, cherry-pick samples, set 2, counter-screen for MITF modulator project, dose response (AID 540335); format: functional; conditions: Homo sapiens
[3] = target: T1, Microphthalmia-associated transcription factor (Homo sapiens, UniProt O75030); experiment: reducers of TRPM1 reporter luminescence, concentration series – cell-based, SK-MEL-5, cherry-picked, set 3, MITF inhibitor project, dose response (AID 493073); format: functional;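 further: SK-MEL-5 melanoma cells with luciferase driven by the MITF target TRPM1 promoter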
T1 sequence (O75030 whole entry): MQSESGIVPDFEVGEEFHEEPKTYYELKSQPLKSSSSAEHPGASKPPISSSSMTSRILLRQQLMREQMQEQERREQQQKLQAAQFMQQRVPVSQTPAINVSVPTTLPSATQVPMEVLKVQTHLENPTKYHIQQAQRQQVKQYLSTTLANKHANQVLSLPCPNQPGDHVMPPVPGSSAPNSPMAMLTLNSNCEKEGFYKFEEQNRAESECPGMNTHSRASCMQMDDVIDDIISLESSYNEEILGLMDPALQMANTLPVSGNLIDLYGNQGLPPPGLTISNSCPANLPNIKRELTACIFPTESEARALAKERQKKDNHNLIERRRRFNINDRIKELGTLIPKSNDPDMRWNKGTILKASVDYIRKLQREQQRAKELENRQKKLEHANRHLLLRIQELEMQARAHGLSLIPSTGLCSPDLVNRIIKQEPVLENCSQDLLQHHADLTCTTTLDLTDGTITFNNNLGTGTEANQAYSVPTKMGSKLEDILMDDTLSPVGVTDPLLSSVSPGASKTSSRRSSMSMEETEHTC

[4] = viability of HCT116 lacking mutant beta-catenin – cell-based, human colon tumor, dose response (AID 1045); format: functional;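 further: HCT116 colon tumor cells with beta catenin knocked out; cells exposed to compound for 60 hours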
[5] = target: Prothrombin (Bos taurus, UniProt P00735); experiment: thrombin protease inhibitors – biochemical, fluorescence polarization, uHTS hits, dose response (AID 602369); format: functional
[6] = target: 26S proteasome non-ATPase regulatory subunit 14 (Homo sapiens, UniProt O00487); experiment: inhibition of proteasome subunit RPN11 – biochemical, fluorescence polarization, uHTS hits, confirmation (AID 602368); format: functional
[7] = target: T2, Apoptotic protease-activating factor 1 (Homo sapiens, UniProt O14727); format: functional
T2 sequence (O14727 whole entry): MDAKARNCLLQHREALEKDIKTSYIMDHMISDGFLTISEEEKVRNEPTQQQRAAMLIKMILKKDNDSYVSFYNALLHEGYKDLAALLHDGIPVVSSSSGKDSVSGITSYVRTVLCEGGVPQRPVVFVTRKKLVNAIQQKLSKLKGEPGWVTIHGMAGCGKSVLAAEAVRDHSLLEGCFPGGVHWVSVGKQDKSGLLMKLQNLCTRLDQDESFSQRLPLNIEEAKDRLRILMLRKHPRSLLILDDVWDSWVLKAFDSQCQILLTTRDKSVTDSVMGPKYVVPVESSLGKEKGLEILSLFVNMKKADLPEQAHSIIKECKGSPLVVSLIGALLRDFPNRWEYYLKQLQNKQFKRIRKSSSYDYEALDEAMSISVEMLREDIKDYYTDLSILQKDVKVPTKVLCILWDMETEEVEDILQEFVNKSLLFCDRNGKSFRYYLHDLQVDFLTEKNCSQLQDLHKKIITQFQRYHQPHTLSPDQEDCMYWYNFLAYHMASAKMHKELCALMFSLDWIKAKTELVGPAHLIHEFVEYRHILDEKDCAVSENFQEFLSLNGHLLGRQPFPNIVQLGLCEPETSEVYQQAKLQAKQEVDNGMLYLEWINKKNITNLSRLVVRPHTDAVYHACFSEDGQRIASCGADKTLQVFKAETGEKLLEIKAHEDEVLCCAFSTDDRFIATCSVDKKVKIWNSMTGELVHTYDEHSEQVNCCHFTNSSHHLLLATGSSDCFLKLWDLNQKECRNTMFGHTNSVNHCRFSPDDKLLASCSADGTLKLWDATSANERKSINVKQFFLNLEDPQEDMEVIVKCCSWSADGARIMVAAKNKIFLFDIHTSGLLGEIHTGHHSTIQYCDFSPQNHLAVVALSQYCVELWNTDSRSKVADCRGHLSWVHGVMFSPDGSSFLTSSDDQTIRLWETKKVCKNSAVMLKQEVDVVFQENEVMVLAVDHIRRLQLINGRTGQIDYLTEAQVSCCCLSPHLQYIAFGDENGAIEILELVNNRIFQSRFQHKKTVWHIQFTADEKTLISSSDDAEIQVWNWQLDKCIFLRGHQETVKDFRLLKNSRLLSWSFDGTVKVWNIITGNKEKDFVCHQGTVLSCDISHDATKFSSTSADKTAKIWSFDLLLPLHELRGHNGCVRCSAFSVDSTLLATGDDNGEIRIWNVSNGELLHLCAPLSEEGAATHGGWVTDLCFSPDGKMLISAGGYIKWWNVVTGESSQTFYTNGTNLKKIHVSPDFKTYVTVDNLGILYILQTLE

[8] = target: 72 kDa type IV collagenase (Homo sapiens, UniProt P08253); experiment: Dose Response validation of uHTS RPN11 inhibitor hits using a MMP-2 Fluorescence assay.; format: functional
[9] = viability of PTEN-deleted HCT116 cells – cell-based, HCT116 PTEN knockout, dose response (AID 1047); format: functional;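 further: HCT116 colon tumor cells with PTEN knocked out; cells exposed to compound for 60 hours before readout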
[10] = target: Protein-tyrosine kinase 2-beta (Homo sapiens, UniProt Q14289);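 further: potency of inhibitors of PYK2 kinase phosphorylation of poly-GT substrate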
[11] = target: Ephrin type-A receptor 4 (Mus musculus, UniProt Q03137); experiment: EphA4 ligand-binding antagonists – biochemical, colorimetric, mouse EphA4, primary screen (AID 689); format: functional
[12] = target: T3, RNA-binding protein pos-1 (Caenorhabditis elegans, UniProt G5EF15); experiment: disruptors of C. elegans POS-1 RNA interaction – biochemical, fluorescence polarization, dose response (AID 1964);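 further: purified POS-1 fused to maltose binding protein made in E. coli; potency of compounds blocking POS-1 binding to fluorescent RNA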
T3 sequence (G5EF15 whole entry): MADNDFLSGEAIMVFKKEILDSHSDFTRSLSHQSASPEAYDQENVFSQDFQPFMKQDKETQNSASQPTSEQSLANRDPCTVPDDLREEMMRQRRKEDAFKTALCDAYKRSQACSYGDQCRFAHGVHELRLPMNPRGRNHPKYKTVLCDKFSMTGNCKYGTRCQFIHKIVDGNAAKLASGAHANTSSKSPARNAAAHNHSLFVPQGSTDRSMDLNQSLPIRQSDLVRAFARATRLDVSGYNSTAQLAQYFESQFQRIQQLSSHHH

[13] = target: T4, Zinc finger protein mex-5 (Caenorhabditis elegans, UniProt Q9XUB2); experiment: potency of MEX-5 RNA-binding blockers – biochemical, C. elegans, fluorescence polarization, dose response (AID 1960)
T4 sequence (Q9XUB2 whole entry): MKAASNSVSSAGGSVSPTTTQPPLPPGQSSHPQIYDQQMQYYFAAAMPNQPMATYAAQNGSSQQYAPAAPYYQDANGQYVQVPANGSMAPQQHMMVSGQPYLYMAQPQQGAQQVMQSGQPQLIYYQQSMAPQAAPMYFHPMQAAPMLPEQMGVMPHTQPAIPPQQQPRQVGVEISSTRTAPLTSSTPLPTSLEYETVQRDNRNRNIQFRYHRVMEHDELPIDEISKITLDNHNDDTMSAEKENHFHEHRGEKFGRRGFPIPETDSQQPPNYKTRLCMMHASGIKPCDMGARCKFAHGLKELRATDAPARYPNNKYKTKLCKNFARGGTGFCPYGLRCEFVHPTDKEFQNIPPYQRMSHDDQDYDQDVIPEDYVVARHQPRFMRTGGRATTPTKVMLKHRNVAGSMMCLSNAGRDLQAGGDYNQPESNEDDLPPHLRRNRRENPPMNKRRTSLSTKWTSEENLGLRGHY

[14] = target: Genome polyprotein (Hepatitis C virus, UniProt Q2Q167); experiment: disruption of hepatitis C core self-association – biochemical, TR-FRET, dose response (AID 2159); parameters: species or system Hepacivirus hominis;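 further: blocks dimerization of HCV core protein measured by TR-FRET between tagged core106 pairs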
[15] = HIV-1 Vif–A3G interaction blockers – biochemical, TR-FRET, GST-Vif 1-94, biotin-A3G peptide, dose response retest, primary screen (AID 1117319); format: functional;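 further: TR-FRET signal of purified GST-Vif binding a biotinylated A3G peptide; inhibitors lower the FRET signal by blocking Vif and A3G binding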
[16] = target: T5, Kappa-type opioid receptor (Homo sapiens, UniProt P41145); format: functional
[17] = HEK-293T viability loss after treatment – luminescence, T-cell screen hits, cytotoxicity control for TCR NF-kB inhibitor project, dose response (AID 489026); format: functional, cell-based;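 further: cells exposed to compound about 14 hours before the viability readout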
[18] = target: Luciferin 4-monooxygenase (Photinus pyralis, UniProt P08659); experiment: Counter Screen for Luciferase-based Assay Positives. [Related pubchem assays: 620, 618, 411 ]
[19] = system: CHO; experiment: CHO cell viability loss, potency – luminescence, cytotoxicity control for TLR9-MyD88 binding inhibitor project, dose response (AID 588339); format: functional, cell-based, hamster; conditions: Cricetulus griseus;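 further: CHO cells stably coexpressing TLR9 and MyD88 fusions from primary screen; compound exposure lasted 48 hours before viability readout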
[20] = target: Beta-galactosidase (Escherichia coli, UniProt Q8VNN2); format: functional
[21] = target: Nonstructural protein 1 (Influenza A virus, UniProt Q194T2); format: functional, Influenza A virus (A/California/07/2009(H1N1))
[22] = target: T6, Heat shock factor protein 1 (Mus musculus, UniProt P38532); experiment: enhancement of HSF1-driven luciferase signal – cell-based, NIH3T3, luminescence, dose retest, confirmation (AID 435004); format: functional;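 further: stress induced by proteasome inhibitor MG132 added 30 min after compound; luciferase reporter driven by HSF1 response element in NIH3T3 cells; actives raise luminescence as potentiators of the MG132 stress response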
T6 sequence (P38532 whole entry): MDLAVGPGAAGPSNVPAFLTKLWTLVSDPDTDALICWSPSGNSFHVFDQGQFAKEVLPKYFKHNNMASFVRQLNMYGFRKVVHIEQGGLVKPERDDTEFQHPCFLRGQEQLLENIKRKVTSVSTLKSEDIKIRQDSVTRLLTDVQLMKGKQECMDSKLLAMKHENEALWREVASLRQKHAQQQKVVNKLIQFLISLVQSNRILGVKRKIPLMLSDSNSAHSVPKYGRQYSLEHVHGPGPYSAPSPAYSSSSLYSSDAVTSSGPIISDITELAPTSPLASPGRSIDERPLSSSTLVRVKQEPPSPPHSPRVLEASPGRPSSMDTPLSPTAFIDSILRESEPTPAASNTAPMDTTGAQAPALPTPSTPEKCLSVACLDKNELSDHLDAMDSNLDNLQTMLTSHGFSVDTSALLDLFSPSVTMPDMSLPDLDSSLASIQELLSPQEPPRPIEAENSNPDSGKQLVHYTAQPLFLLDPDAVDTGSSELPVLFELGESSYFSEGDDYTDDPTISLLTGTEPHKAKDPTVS

[23] = target: T5, Kappa-type opioid receptor; format: functional; remark: listed apart in the source
[24] = system: HT-1080; experiment: HT1080 cell viability loss – fluorescence readout (AID 620); format: functional, cell-based; conditions: Homo sapiens
[25] = viability loss in Vero cells – cytotoxicity control for Vif-APOBEC3G degradation inhibitor project, dose response (AID 1117358); format: functional; conditions: Vero
[26] = system: Vero; experiment: mammalian cell viability reduction – secondary assay, cytotoxicity control for West Nile virus antiviral project, dose response (AID 1650); format: functional; conditions: Chlorocebus sabaeus
[27] = target: Heat shock protein HSP 90-alpha (Homo sapiens, UniProt P07900); format: functional, organism-based
[28] = target: Voltage-gated inwardly rectifying potassium channel KCNH2 (Homo sapiens, UniProt Q12809); conditions: Potency;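 further: confirmatory quantitative high-throughput screen measuring inhibition of hERG channel activity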
[29] = target: 5-hydroxytryptamine receptor 1A (Homo sapiens, UniProt P08908); format: functional
[30] = target: Exodeoxyribonuclease V (Escherichia coli (strain K12), UniProt P04993+P07648+P08394); experiment: RecBCD inhibition via phage-restricted bacterial growth – absorbance, V66 E. coli, mutant T4 phage, counter-screen for AddAB inhibitor project, dose response (AID 492957); format: functional, cell-based, Escherichia coli str. K-12 substr. MG1655
[31] = Counterscreen for AddAB inhibitors: absorbance-based bacterial cell-based high throughput dose response assay for inhibitors of bacterial viability. [Related pubchem assays (depositor defined):AID435030, AID449728, AID449731, AID488942, AID488955, AID488956]; format: functional

T5 sequence (P41145 whole entry): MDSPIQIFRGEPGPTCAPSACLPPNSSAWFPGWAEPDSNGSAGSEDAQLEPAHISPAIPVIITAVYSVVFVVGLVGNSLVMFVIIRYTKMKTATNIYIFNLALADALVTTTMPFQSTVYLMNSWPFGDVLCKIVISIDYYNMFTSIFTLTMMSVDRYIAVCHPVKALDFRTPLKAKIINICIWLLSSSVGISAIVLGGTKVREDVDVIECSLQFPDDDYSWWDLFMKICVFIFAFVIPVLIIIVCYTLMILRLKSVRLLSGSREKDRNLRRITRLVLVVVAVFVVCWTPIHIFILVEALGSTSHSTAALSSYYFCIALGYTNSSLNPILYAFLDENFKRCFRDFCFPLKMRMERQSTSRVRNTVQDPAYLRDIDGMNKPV
Sequence of 5-hydroxytryptamine receptor 1A (P08908 whole entry): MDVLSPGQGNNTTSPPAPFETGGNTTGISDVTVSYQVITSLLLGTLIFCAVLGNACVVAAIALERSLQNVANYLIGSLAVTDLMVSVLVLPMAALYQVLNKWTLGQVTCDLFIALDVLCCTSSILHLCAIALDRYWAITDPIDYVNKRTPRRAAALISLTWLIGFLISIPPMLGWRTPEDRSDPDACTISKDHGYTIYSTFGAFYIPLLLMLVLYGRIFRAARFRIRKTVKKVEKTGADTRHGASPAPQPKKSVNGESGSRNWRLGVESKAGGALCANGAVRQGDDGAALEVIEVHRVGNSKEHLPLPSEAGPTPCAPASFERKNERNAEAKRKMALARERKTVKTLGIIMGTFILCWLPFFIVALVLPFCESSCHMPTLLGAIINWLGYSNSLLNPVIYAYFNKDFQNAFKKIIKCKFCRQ
Sequence of Nonstructural protein 1 (Q194T2 whole entry): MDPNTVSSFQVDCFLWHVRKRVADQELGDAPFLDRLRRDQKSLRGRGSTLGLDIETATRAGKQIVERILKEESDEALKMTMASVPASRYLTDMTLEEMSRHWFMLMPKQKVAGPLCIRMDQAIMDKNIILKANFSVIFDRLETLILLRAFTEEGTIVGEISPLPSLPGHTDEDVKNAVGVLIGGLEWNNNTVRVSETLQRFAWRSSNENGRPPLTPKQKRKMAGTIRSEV
Sequence of 72 kDa type IV collagenase (P08253 whole entry): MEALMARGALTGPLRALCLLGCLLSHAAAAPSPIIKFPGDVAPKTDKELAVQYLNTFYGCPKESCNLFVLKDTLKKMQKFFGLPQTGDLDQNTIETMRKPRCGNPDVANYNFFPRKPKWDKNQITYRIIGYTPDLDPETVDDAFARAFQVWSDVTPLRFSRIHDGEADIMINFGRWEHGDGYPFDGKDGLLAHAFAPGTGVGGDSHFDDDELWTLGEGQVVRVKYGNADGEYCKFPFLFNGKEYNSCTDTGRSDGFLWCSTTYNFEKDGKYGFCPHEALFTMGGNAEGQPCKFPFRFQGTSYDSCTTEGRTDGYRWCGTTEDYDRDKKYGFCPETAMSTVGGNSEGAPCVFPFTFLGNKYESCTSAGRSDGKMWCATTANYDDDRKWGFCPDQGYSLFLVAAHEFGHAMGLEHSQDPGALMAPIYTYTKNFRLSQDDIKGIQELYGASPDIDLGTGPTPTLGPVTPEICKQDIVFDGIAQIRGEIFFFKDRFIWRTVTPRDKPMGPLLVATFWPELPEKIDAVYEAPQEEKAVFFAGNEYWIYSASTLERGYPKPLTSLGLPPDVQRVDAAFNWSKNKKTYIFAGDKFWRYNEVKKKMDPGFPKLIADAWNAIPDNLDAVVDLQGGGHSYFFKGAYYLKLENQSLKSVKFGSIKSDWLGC
Sequence of Exodeoxyribonuclease V (P04993 whole entry): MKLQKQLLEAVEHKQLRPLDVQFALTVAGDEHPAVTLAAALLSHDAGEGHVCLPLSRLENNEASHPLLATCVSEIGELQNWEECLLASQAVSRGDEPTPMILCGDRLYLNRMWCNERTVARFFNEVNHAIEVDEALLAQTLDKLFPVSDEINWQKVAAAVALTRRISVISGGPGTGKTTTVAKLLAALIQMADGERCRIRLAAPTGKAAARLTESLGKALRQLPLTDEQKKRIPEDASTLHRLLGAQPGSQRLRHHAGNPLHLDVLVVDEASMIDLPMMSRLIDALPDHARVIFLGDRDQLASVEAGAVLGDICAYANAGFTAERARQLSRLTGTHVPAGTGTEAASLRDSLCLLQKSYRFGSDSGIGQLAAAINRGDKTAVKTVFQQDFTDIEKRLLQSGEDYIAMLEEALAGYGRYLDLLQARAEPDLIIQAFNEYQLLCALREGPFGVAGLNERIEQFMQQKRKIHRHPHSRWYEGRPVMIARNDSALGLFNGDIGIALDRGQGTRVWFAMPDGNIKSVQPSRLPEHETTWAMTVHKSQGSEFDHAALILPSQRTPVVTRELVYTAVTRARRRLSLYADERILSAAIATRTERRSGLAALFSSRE
Sequence of Exodeoxyribonuclease V (P07648 whole entry): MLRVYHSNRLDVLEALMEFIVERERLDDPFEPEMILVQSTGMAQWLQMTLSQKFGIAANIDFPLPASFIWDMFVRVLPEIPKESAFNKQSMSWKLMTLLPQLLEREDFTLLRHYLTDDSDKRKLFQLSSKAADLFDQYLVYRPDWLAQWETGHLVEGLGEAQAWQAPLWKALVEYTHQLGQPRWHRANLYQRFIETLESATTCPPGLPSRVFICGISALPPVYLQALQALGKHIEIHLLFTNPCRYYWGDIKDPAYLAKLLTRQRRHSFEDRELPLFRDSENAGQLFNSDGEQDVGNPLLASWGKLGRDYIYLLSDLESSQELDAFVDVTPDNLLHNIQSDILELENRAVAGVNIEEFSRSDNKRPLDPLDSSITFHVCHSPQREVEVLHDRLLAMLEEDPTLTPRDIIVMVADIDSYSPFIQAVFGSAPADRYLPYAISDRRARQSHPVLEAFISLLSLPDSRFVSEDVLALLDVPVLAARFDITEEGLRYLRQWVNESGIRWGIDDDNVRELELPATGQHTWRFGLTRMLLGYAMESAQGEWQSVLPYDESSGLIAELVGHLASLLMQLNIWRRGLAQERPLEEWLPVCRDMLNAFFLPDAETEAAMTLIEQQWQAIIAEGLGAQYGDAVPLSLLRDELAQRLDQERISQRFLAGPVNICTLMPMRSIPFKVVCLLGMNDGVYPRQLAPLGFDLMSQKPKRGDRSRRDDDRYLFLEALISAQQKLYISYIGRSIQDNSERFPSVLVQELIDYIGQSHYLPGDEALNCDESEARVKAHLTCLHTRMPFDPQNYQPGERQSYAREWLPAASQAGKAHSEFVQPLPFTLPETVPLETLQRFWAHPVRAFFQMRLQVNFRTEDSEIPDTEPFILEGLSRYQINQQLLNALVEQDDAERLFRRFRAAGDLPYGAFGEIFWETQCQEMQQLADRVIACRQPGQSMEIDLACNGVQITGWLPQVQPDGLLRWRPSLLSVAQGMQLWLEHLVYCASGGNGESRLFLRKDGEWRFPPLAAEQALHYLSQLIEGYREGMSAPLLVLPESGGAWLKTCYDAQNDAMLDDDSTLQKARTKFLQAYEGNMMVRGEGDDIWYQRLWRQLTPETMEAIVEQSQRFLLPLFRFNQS
Sequence of Exodeoxyribonuclease V (P08394 whole entry): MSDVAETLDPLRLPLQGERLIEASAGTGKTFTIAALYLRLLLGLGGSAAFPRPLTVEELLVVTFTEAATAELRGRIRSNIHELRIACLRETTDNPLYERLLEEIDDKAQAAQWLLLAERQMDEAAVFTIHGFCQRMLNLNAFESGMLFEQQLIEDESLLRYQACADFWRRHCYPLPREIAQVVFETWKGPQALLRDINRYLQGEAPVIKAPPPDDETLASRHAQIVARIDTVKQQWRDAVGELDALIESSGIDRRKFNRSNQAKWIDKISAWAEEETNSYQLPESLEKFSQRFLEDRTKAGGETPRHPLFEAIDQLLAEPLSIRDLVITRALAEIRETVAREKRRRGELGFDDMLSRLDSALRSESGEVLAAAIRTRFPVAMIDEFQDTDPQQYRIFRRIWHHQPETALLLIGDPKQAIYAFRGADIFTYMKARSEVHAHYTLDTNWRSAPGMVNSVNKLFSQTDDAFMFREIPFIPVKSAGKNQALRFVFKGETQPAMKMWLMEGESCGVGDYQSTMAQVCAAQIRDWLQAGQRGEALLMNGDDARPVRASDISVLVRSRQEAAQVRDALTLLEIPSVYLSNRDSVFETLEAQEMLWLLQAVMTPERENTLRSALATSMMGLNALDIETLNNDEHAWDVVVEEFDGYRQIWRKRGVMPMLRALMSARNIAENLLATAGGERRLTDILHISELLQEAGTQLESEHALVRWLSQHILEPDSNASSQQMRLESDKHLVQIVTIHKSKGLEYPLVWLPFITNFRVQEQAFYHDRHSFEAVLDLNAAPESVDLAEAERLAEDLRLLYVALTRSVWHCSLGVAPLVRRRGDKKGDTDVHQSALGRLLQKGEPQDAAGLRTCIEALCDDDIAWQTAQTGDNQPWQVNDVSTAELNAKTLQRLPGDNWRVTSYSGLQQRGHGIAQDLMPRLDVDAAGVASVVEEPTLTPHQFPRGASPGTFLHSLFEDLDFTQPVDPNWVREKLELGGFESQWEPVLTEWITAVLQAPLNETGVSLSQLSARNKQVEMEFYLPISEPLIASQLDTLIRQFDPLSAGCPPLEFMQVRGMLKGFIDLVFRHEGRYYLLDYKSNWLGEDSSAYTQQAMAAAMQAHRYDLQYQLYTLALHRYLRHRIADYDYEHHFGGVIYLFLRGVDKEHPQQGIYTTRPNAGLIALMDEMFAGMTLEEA
Sequence of 26S proteasome non-ATPase regulatory subunit 14 (O00487 whole entry): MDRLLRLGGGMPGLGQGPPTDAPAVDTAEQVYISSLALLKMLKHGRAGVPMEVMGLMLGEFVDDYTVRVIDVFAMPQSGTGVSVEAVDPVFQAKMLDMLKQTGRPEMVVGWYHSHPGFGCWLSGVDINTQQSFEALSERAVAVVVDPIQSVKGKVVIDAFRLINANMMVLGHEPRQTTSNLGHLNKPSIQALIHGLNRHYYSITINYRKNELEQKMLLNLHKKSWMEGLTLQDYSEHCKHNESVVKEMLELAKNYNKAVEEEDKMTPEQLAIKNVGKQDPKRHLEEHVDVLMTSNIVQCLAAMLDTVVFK

Compound: CCOc1ccc2nc(NC3=NC(=O)CC(c4ccc(OC)cc4)N3)nc(C)c2c1 (stereo unspecified)
- AC50 [1]: 8.71 µM (active)
- AC50 [2]: 27.7 µM (active)
- AC50 [3]: 9.49 µM (active)
- EC50 [4]: 7.4 µM (active)
- IC50 [5]: 77.6 µM (active)
- IC50 [6]: 22 µM (active)
- IC50 [7]: 17.6 µM (active)
- IC50 [8]: > 100 µM (inactive)
- EC50 [9]: 9.86 µM (active)
- IC50 [10]: 5.85 µM (active)

Compound: Cc1cc(C)c2nc(N3CCCN(C(=O)c4ccco4)CC3)c(C#N)cc2c1
- IC50 [11]: 16.6 µM (active)

Compound: O=C1CSC(=S)N1/N=C/c1ccc(Cl)c([N+](=O)[O-])c1
- EC50 [12]: 18.6 µM (active)
- EC50 [13]: 15.7 µM (active)
- IC50 [14]: > 49.8 µM (not active)

Compound: O=S1(=O)Nc2c(ccc3cccnc23)-c2ccccc21
- IC50 [15]: > 100 µM (active)
- IC50 [16]: > 32 µM
- IC50 [17]: > 80 µM (inactive)
- EC50 [18]: 2.82 µM (active)
- IC50 [19]: 1.77 µM (active)
- EC50 [20]: > 31.5 µM (inactive)
- IC50 [21]: 3.63 µM (active)
- EC50 [22]: 2.76 µM (active)
- IC50 [23]: 1.3 µM (active)
- EC50 [24]: > 50 µM (not active)
- CC50 [25]: 13.8 µM (active)
- CC50 [26]: 4.21 µM (active)
- AC50 [27]: < 0.195 µM (active)

Compound: Cc1cc(C(C)(C)C)cc(C)c1CC1=NCCN1 [XYLOMETAZOLINE HYDROCHLORIDE]
- AC50 [28]: 14.1 µM (inconclusive)
- EC50 [29]: 0.129 µM (active)
- IC50 [30]: > 119 µM (inactive)
- IC50 [31]: 29.7 µM (inactive)

From ChEMBL document CHEMBL1201862, “PubChem BioAssay data set” (2004)
